# Measured values reported in PMC10866072, “Design, synthesis, molecular modelling and biological evaluation of novel 6-amino-5-cyano-2-thiopyrimidine derivatives as potent anticancer agents against leukemia and apoptotic inducers” (Journal of Enzyme Inhibition and Medicinal Chemistry, 2024).
# How the values were obtained:
# [1] = tested on: HCC-2998; type: cell-based; conditions: one dose 10^-5 M, 48 h
# [2] = tested on: M14; type: cell-based; conditions: one dose 10^-5 M, 48 h
# [3] = tested on: SN12C; type: cell-based, human; conditions: one dose 10^-5 M, 48 h
# [4] = tested on: HT29; type: cell-based; conditions: one dose 10^-5 M, 48 h
# [5] = tested on: NCI-H226; type: cell-based; conditions: one dose 10^-5 M, 48 h
# [6] = tested on: 786-0; type: cell-based; conditions: one dose 10^-5 M, 48 h
# [7] = tested on: HOP-62; type: cell-based; conditions: one dose 10^-5 M, 48 h
# [8] = tested on: HOP-92; type: cell-based; conditions: one dose 10^-5 M, 48 h
# [9] = tested on: U251; type: cell-based; conditions: one dose 10^-5 M, 48 h
# [10] = tested on: UACC-257; type: cell-based; conditions: one dose 10^-5 M, 48 h
# [11] = tested on: MDA-MB-468; type: cell-based; conditions: one dose 10^-5 M, 48 h
# [12] = tested on: SNB-19; type: cell-based; conditions: one dose 10^-5 M, 48 h
# [13] = tested on: COLO 205; type: cell-based; conditions: one dose 10^-5 M, 48 h
# [14] = tested on: OVCAR-8; type: cell-based; conditions: one dose 10^-5 M, 48 h
# [15] = tested on: HL-60(TB); type: cell-based; conditions: one dose 10^-5 M, 48 h
# [16] = tested on: T-47D; type: cell-based; conditions: one dose 10^-5 M, 48 h
# [17] = tested on: OVCAR-5; type: cell-based; conditions: one dose 10^-5 M, 48 h
# [18] = tested on: SF-295; type: cell-based; conditions: one dose 10^-5 M, 48 h
# [19] = tested on: DU-145; type: cell-based; conditions: one dose 10^-5 M, 48 h
# [20] = tested on: OVCAR-3; type: cell-based; conditions: one dose 10^-5 M, 48 h
# [21] = tested on: SK-OV-3; type: cell-based; conditions: one dose 10^-5 M, 48 h
# [22] = tested on: PC-3; type: cell-based; conditions: one dose 10^-5 M, 48 h
# [23] = tested on: SF-268; type: cell-based; conditions: one dose 10^-5 M, 48 h
# [24] = tested on: NCI-H522; type: cell-based; conditions: one dose 10^-5 M, 48 h
# [25] = tested on: MDA-MB-435; type: cell-based; conditions: one dose 10^-5 M, 48 h
# [26] = tested on: OVCAR-4; type: cell-based; conditions: one dose 10^-5 M, 48 h
# [27] = tested on: SK-MEL-5; type: cell-based; conditions: one dose 10^-5 M, 48 h
# [28] = tested on: MALME-3M; type: cell-based; conditions: one dose 10^-5 M, 48 h
# [29] = tested on: K-562; type: cell-based; conditions: one dose 10^-5 M, 48 h
# [30] = tested on: SK-MEL-2; type: cell-based; conditions: one dose 10^-5 M, 48 h
# [31] = tested on: NCI-H460; type: cell-based; conditions: one dose 10^-5 M, 48 h
# [32] = tested on: full NCI 60 cell lines panel
# [33] = tested on: LOX IMVI; type: cell-based; conditions: one dose 10^-5 M, 48 h
# [34] = tested on: RPMI-8226; type: cell-based; conditions: one dose 10^-5 M, 48 h
# [35] = tested on: SK-MEL-28; type: cell-based; conditions: one dose 10^-5 M, 48 h
# [36] = tested on: ACHN; type: cell-based; conditions: one dose 10^-5 M, 48 h
# [37] = tested on: TK-10; type: cell-based; conditions: one dose 10^-5 M, 48 h
# [38] = tested on: UO-31; type: cell-based; conditions: one dose 10^-5 M, 48 h
# [39] = tested on: SR; type: cell-based; conditions: one dose 10^-5 M, 48 h
# [40] = tested on: NCI/ADR-RES; type: cell-based; conditions: one dose 10^-5 M, 48 h
# [41] = tested on: MDA-MB-231/ATCC; type: cell-based; conditions: one dose 10^-5 M, 48 h
# [42] = tested on: HS 578T; type: cell-based; conditions: one dose 10^-5 M, 48 h; HS 578T
# [43] = tested on: MCF7; type: cell-based; conditions: one dose 10^-5 M, 48 h
# [44] = tested on: HCT-116; type: cell-based; conditions: one dose 10^-5 M, 48 h
# [45] = tested on: MOLT-4; type: cell-based; conditions: one dose 10^-5 M, 48 h
# [46] = tested on: NCI-H23; type: cell-based; conditions: one dose 10^-5 M, 48 h
# [47] = tested on: A549/ATCC; type: cell-based; conditions: one dose 10^-5 M, 48 h
# [48] = tested on: IGROV1; type: cell-based; conditions: one dose 10^-5 M, 48 h
# [49] = tested on: UACC-62; type: cell-based; conditions: one dose 10^-5 M, 48 h
# [50] = tested on: BT-549; type: cell-based; conditions: one dose 10^-5 M, 48 h
# [51] = tested on: SF-539; type: cell-based; conditions: one dose 10^-5 M, 48 h
# [52] = tested on: CAKI-1; type: cell-based; conditions: one dose 10^-5 M, 48 h
# [53] = tested on: A498; type: cell-based; conditions: one dose 10^-5 M, 48 h
# [54] = tested on: EKVX; type: cell-based; conditions: one dose 10^-5 M, 48 h
# [55] = tested on: SW-620; type: cell-based; conditions: one dose 10^-5 M, 48 h
# [56] = tested on: HCT-15; type: cell-based; conditions: one dose 10^-5 M, 48 h
# [57] = tested on: SNB-75; type: cell-based; conditions: one dose 10^-5 M, 48 h
# [58] = tested on: CCRF-CEM; type: cell-based; conditions: one dose 10^-5 M, 48 h
# [59] = tested on: KM12; type: cell-based; conditions: one dose 10^-5 M, 48 h
substance,measurement,setting,value
"3-Amino-4-[4-(dimethylamino)phenyl]-1H-pyrazolo[3,4-d]pyrimidine-6-thiol [Compound 3a]",% growth,[1],108.59%
same,% growth,[2],99.09%
same,% growth,[3],100.69%
same,% growth,[4],108.47%
same,% growth,[5],95.19%
same,% growth,[6],109.39%
same,% growth,[7],108.87%
same,% growth,[8],116.09%
same,% growth,[9],109.49%
same,% growth,[10],110.00%
same,% growth,[11],115.89%
same,% growth,[12],101.52%
same,% growth,[13],120.31%
same,% growth,[14],104.18%
same,% growth,[15],89.88%
same,% growth,[16],102.75%
same,% growth,[17],107.30%
same,% growth,[18],105.95%
same,% growth,[19],116.81%
same,% growth,[20],116.36%
same,% growth,[21],107.23%
same,% growth,[22],78.25%
same,% growth,[23],105.34%
same,% growth,[24],92.08%
same,% growth,[25],109.49%
same,% growth,[26],103.10%
same,% growth,[27],104.39%
same,% growth,[28],102.71%
same,% growth,[29],102.48%
same,% growth,[30],111.64%
same,% growth,[31],108.52%
same,activity on all 60 cancer cell lines tested (in words),[32]; one dose,weak activity
same,Mean % growth,"[32]; one dose 10^-5 M, 48 h, mean over all cell lines",103.40%
same,% growth,[33],97.52%
same,% growth,[34],86.49%
same,% growth,[35],112.69%
same,% growth,[36],92.14%
same,% growth,[37],119.65%
same,% growth,[38],58.31%
same,% growth,[39],90.80%
same,% growth,[40],103.45%
same,% growth,[41],98.99%
same,% growth,[42],108.39%
same,% growth,[43],88.54%
same,% growth,[44],101.11%
same,% growth,[45],100.00%
same,% growth,[46],98.77%
same,% growth,[47],110.12%
same,% growth,[48],104.23%
same,% growth,[49],97.30%
same,% growth,[50],95.32%
same,% growth,[51],108.53%
same,% growth,[52],92.97%
same,% growth,[53],162.31%
same,% growth,[54],97.12%
same,% growth,[55],115.71%
same,% growth,[56],95.53%
same,% growth,[57],116.67%
same,% growth,[58],77.55%
same,% growth,[59],97.17%
